Values quoted from earlier work in patent US20070104771A1, “Transdermal galantamine delivery system” (priority 2005, published 2007).

## COc1ccc2c3c1OC1CC(O)C=CC31CCN(C)C2 (stereo not shown) [galantamine, 4a, 5,9, 10, 11, 12-Hexahydro-3-methoxy-11-methyl-6H-benzofuro (3a, 3,2-ef) (2) benzazepin-6-ol]
  oral bioavailability: 90%
